Assay results as given in PubChem BioAssay AID1963847 (Molecular Pharmacology Branch, DTP, NCI, 2024).

Test system: 415267-285-R-J2-PDC complex spheroid viability
Test: Anticancer human tumor 415267-285-R-J2-PDC patient-derived breast carcinoma cell line growth inhibition [POLQ]
Settings: for IC50: curve of first compound; for viability, T/C: stronger effect = lower value
Outline: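 Growth inhibition in 3D: complex spheroids (tumor PDC, HUVEC, MSC) treated with POLQ inhibitor combinations; where Cmax unknown, highest tested concentration 10 microM, except SN-38 at 1 microM.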

[1] = second compound 0.0316 µM, first compound 0.0316 µM
[2] = second compound 0.0316 µM, first compound 0.1 µM
[3] = second compound 0.0316 µM, first compound 0.316 µM
[4] = second compound 0.0316 µM, first compound 1 µM
[5] = second compound 0.0316 µM, first compound 3.16 µM
[6] = second compound 0.0316 µM, first compound 10 µM
[7] = second compound 0.1 µM, first compound 0.0316 µM
[8] = second compound 0.1 µM, first compound 0.1 µM
[9] = second compound 0.1 µM, first compound 0.316 µM
[10] = second compound 0.1 µM, first compound 1 µM
[11] = second compound 0.1 µM, first compound 3.16 µM
[12] = second compound 0.1 µM, first compound 10 µM
[13] = second compound 0.316 µM, first compound 0.0316 µM
[14] = second compound 0.316 µM, first compound 0.1 µM
[15] = second compound 0.316 µM, first compound 0.316 µM
[16] = second compound 0.316 µM, first compound 1 µM
[17] = second compound 0.316 µM, first compound 3.16 µM
[18] = second compound 0.316 µM, first compound 10 µM
[19] = second compound 1 µM, first compound 0.0316 µM
[20] = second compound 1 µM, first compound 0.1 µM
[21] = second compound 1 µM, first compound 0.316 µM
[22] = second compound 1 µM, first compound 1 µM
[23] = second compound 1 µM, first compound 3.16 µM
[24] = second compound 1 µM, first compound 10 µM
[25] = second compound 3.16 µM, first compound 0.0316 µM
[26] = second compound 3.16 µM, first compound 0.1 µM
[27] = second compound 3.16 µM, first compound 0.316 µM
[28] = second compound 3.16 µM, first compound 1 µM
[29] = second compound 3.16 µM, first compound 3.16 µM
[30] = second compound 3.16 µM, first compound 10 µM
[31] = second compound 10 µM, first compound 0.0316 µM
[32] = second compound 10 µM, first compound 0.1 µM
[33] = second compound 10 µM, first compound 0.316 µM
[34] = second compound 10 µM, first compound 1 µM
[35] = second compound 10 µM, first compound 3.16 µM
[36] = second compound 10 µM, first compound 10 µM
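Also: spheroids exposed to compounds for one week before readout.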
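For viability, T/C in this document: luminescence used as stand-in measure of viable cells; 100% = DMSO vehicle control viability.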

## CC1COCCN1c1cc(C2(S(C)(=N)=O)CC2)nc(-c2ccnc3[nH]ccc23)n1 (stereo not drawn) + COC1C(OC(N)=O)C(O)C(Oc2ccc3c(O)c(NC(=O)c4ccc(O)c(CC=C(C)C)c4)c(=O)oc3c2C)OC1(C)C
Second compound 0.0316 µM
  IC50: 463 nM
Second compound 0.1 µM
  IC50: 432 nM
Second compound 0.316 µM
  IC50: 504 nM
Second compound 1 µM
  IC50: 512 nM
Second compound 3.16 µM
  IC50: 591 nM
Second compound 10 µM
  IC50: 513 nM
[1]
  viability, T/C: 105%
[2]
  viability, T/C: 108%
[3]
  viability, T/C: 67.2%
[4]
  viability, T/C: 14.9%
[5]
  viability, T/C: 6.29%
[6]
  viability, T/C: 4.89%
[7]
  viability, T/C: 105%
[8]
  viability, T/C: 96.6%
[9]
  viability, T/C: 65.3%
[10]
  viability, T/C: 9.55%
[11]
  viability, T/C: 5.9%
[12]
  viability, T/C: 4.32%
[13]
  viability, T/C: 95.4%
[14]
  viability, T/C: 96.3%
[15]
  viability, T/C: 76.2%
[16]
  viability, T/C: 11.6%
[17]
  viability, T/C: 7.22%
[18]
  viability, T/C: 5.59%
[19]
  viability, T/C: 93.2%
[20]
  viability, T/C: 97.7%
[21]
  viability, T/C: 76.2%
[22]
  viability, T/C: 13.5%
[23]
  viability, T/C: 10%
[24]
  viability, T/C: 4.78%
[25]
  viability, T/C: 95%
[26]
  viability, T/C: 105%
[27]
  viability, T/C: 89.8%
[28]
  viability, T/C: 16.4%
[29]
  viability, T/C: 6.8%
[30]
  viability, T/C: 4.43%
[31]
  viability, T/C: 97.5%
[32]
  viability, T/C: 97.9%
[33]
  viability, T/C: 76.5%
[34]
  viability, T/C: 13.5%
[35]
  viability, T/C: 6.73%
[36]
  viability, T/C: 5.32%

## Cn1ncnc1[C@H]1c2n[nH]c(=O)c3cc(F)cc(c23)N[C@@H]1c1ccc(F)cc1 + Cc1cccc(N(C)C(=O)C2C(O)CCN2c2nc(C)cc(C(F)(F)F)c2C#N)c1
Second compound 0.0316 µM
  IC50: > 100 nM
Second compound 0.1 µM
  IC50: > 100 nM
Second compound 0.316 µM
  IC50: > 100 nM
Second compound 1 µM
  IC50: > 100 nM
Second compound 3.16 µM
  IC50: > 100 nM
Second compound 10 µM
  IC50: > 100 nM
Second compound 0.0316 µM, first compound 0.000316 µM
  viability, T/C: 92.9%
Second compound 0.0316 µM, first compound 0.001 µM
  viability, T/C: 103%
Second compound 0.0316 µM, first compound 0.00316 µM
  viability, T/C: 106%
Second compound 0.0316 µM, first compound 0.01 µM
  viability, T/C: 96.3%
[1]
  viability, T/C: 104%
[2]
  viability, T/C: 96.5%
Second compound 0.1 µM, first compound 0.000316 µM
  viability, T/C: 90.8%
Second compound 0.1 µM, first compound 0.001 µM
  viability, T/C: 93.9%
Second compound 0.1 µM, first compound 0.00316 µM
  viability, T/C: 114%
Second compound 0.1 µM, first compound 0.01 µM
  viability, T/C: 109%
[7]
  viability, T/C: 99.9%
[8]
  viability, T/C: 97.9%
Second compound 0.316 µM, first compound 0.000316 µM
  viability, T/C: 97.1%
Second compound 0.316 µM, first compound 0.001 µM
  viability, T/C: 90.4%
Second compound 0.316 µM, first compound 0.00316 µM
  viability, T/C: 95.7%
Second compound 0.316 µM, first compound 0.01 µM
  viability, T/C: 96.8%
[13]
  viability, T/C: 95.3%
[14]
  viability, T/C: 87.2%
Second compound 1 µM, first compound 0.000316 µM
  viability, T/C: 103%
Second compound 1 µM, first compound 0.001 µM
  viability, T/C: 95.6%
Second compound 1 µM, first compound 0.00316 µM
  viability, T/C: 93.9%
Second compound 1 µM, first compound 0.01 µM
  viability, T/C: 101%
[19]
  viability, T/C: 98.3%
[20]
  viability, T/C: 101%
Second compound 3.16 µM, first compound 0.000316 µM
  viability, T/C: 92.9%
Second compound 3.16 µM, first compound 0.001 µM
  viability, T/C: 97.1%
Second compound 3.16 µM, first compound 0.00316 µM
  viability, T/C: 103%
Second compound 3.16 µM, first compound 0.01 µM
  viability, T/C: 103%
[25]
  viability, T/C: 99.8%
[26]
  viability, T/C: 87.7%
Second compound 10 µM, first compound 0.000316 µM
  viability, T/C: 93.3%
Second compound 10 µM, first compound 0.001 µM
  viability, T/C: 97.9%
Second compound 10 µM, first compound 0.00316 µM
  viability, T/C: 110%
Second compound 10 µM, first compound 0.01 µM
  viability, T/C: 93%
[31]
  viability, T/C: 91%
[32]
  viability, T/C: 90.5%

## O=C(Nc1ccc(O)c(NS(=O)(=O)c2ccc(F)cc2)c1)c1ccc(-c2ccccc2)cc1 + Nc1ccc(C#CCN(C(=O)Cc2ncc(C(F)(F)F)cc2C(F)(F)F)c2ccc(F)cc2)nn1
Second compound 0.0316 µM
  IC50: > 10000 nM
Second compound 0.1 µM
  IC50: > 10000 nM
Second compound 0.316 µM
  IC50: > 10000 nM
Second compound 1 µM
  IC50: > 10000 nM
Second compound 3.16 µM
  IC50: > 10000 nM
Second compound 10 µM
  IC50: > 10000 nM
[1]
  viability, T/C: 100%
[2]
  viability, T/C: 97.3%
[3]
  viability, T/C: 84.3%
[4]
  viability, T/C: 107%
[5]
  viability, T/C: 92.7%
[6]
  viability, T/C: 78.2%
[7]
  viability, T/C: 104%
[8]
  viability, T/C: 99.1%
[9]
  viability, T/C: 106%
[10]
  viability, T/C: 86.1%
[11]
  viability, T/C: 97.2%
[12]
  viability, T/C: 61.6%
[13]
  viability, T/C: 105%
[14]
  viability, T/C: 102%
[15]
  viability, T/C: 107%
[16]
  viability, T/C: 94.9%
[17]
  viability, T/C: 97.4%
[18]
  viability, T/C: 71.5%
[19]
  viability, T/C: 102%
[20]
  viability, T/C: 90.8%
[21]
  viability, T/C: 89.6%
[22]
  viability, T/C: 95.3%
[23]
  viability, T/C: 99.8%
[24]
  viability, T/C: 66.2%
[25]
  viability, T/C: 102%
[26]
  viability, T/C: 103%
[27]
  viability, T/C: 106%
[28]
  viability, T/C: 97.8%
[29]
  viability, T/C: 91.7%
[30]
  viability, T/C: 75.7%
[31]
  viability, T/C: 102%
[32]
  viability, T/C: 99.9%
[33]
  viability, T/C: 111%
[34]
  viability, T/C: 89.5%
[35]
  viability, T/C: 99.5%
[36]
  viability, T/C: 59.5%

## C#Cc1c(F)ccc2cc(O)cc(-c3ncc4c(N5CC6CCC(C5)N6)nc(OCC56CCCN5CC(F)C6)nc4c3F)c12 (stereo not drawn) + Cc1cccc(N(C)C(=O)C2C(O)CCN2c2nc(C)cc(C(F)(F)F)c2C#N)c1
Second compound 0.0316 µM
  IC50: > 10000 nM
Second compound 0.1 µM
  IC50: > 10000 nM
Second compound 0.316 µM
  IC50: > 10000 nM
Second compound 1 µM
  IC50: > 10000 nM
Second compound 3.16 µM
  IC50: > 10000 nM
Second compound 10 µM
  IC50: > 10000 nM
[1]
  viability, T/C: 96.9%
[2]
  viability, T/C: 95.5%
[3]
  viability, T/C: 104%
[4]
  viability, T/C: 104%
[5]
  viability, T/C: 111%
[6]
  viability, T/C: 101%
[7]
  viability, T/C: 91.2%
[8]
  viability, T/C: 99.8%
[9]
  viability, T/C: 91%
[10]
  viability, T/C: 99.8%
[11]
  viability, T/C: 104%
[12]
  viability, T/C: 102%
[13]
  viability, T/C: 112%
[14]
  viability, T/C: 102%
[15]
  viability, T/C: 100%
[16]
  viability, T/C: 115%
[17]
  viability, T/C: 113%
[18]
  viability, T/C: 104%
[19]
  viability, T/C: 101%
[20]
  viability, T/C: 106%
[21]
  viability, T/C: 92.9%
[22]
  viability, T/C: 117%
[23]
  viability, T/C: 106%
[24]
  viability, T/C: 109%
[25]
  viability, T/C: 113%
[26]
  viability, T/C: 98.8%
[27]
  viability, T/C: 104%
[28]
  viability, T/C: 115%
[29]
  viability, T/C: 91.3%
[30]
  viability, T/C: 98.7%
[31]
  viability, T/C: 105%
[32]
  viability, T/C: 95.4%
[33]
  viability, T/C: 95.6%
[34]
  viability, T/C: 98%
[35]
  viability, T/C: 101%
[36]
  viability, T/C: 98.4%
